{"source": "patent US5208032A", "about": "“Increasing the growth of turkeys using implant of 19-nortestosterone” (Rutgers, The State University of New Jersey, priority 1992, dated 1993)", "experiment": "Comparison of effect on growth in castrated male White Leghorn chickens (Study IV, Table II)", "assay_type": "in vivo", "procedure": "The single comb White Leghorn strain (Dekalb XL) of chicken (Avian Services, Frenchtown, N.J.) was used in all studies. Chicks were obtained on the day following hatch and were then maintained in a well ventilated, temperature- and humidity-controlled animal room. Chicks were housed in temperature-controlled (access to small brood chambers--32° to 35° C.), wire-floored, 5-tier brooder batteries (measuring 0.74 W×1.55 L×0.27 H m per tier) until termination of respective studies. A 12 hour light:12 hour dark photoperiod was maintained at all times within the animal room. Feed and water were available ad libitum, with a standard commercial diet (Agway; Bordentown, N.J.), chick starter mash, fed to chicks 1 to 42 days of age, and then from 43 to 84 days, grower mash was provided (manufacturer statement on ration compositions are shown in Table 2).\nExcluding Study II, chicks were either castrated (Quigley, 1967) or sham-operated at 13 days of age. Prior to castration, cockerels were deprived of feed and water for 24 hours in order that the intestines may become empty and thus permit better vision into the body cavity and accessibility to testes. Birds were restrained by fastening the wings and legs with leather straps so that sufficient tension was applied to hold the bird well stretched out in a lateral recumbency (on its left side). Next, an approximate 1 inch incision was made midway between the last two ribs and a small rib spreader inserted to hold the ribs about 1/2 inch apart.\nForceps were used to remove both testicles, with the lower or left testicle removed first. The forceps were carefully worked over the testicle and so manipulated as to enclose the entire organ. It was then drawn out with a slight twisting motion. At this step, care was taken not to rupture any of the primary blood vessels. When the rib spreader was removed, and the tension on the bird released (i.e., leg and wing straps removed), the skin and thigh muscles slipped back over the incision thus affording a natural protection. No special care was necessary for surgically manipulated birds other than to puncture \"air pockets\" which developed under the skin due to air escaping from within the abdominal cavity before the incision between the ribs was healed.\nIn all studies, chicks were rank-ordered by weight, wing-banded and distributed into treatment groups of equal body weights at 14 days of age. Excluding Study I, e.g., in which male, female and castrate male comparisons were made, all control groups were implanted with 1.0-cm length cholesterol-filled Silastic polysiloxane implants (i.e., steroid surface exposure of 1.0-cm; actual length was 2.0-cm with 1/2 cm wood dowel plugs placed at each end of implant). The remaining treatment groups consisted of chicks (male, female or castrated male) implanted with either testosterone-, 5-alpha-DHT-, 5-beta-DHT-, estradiol-17-beta-, or 19-nortestosterone-filled Silastic polysiloxane implants with steriod surface exposures of either 0.3, 1.0 or 3.0 cm in length. Steroid implants were prepared by manually packing respective crystalline steroids (Steraloids; Wilton, N.H.) into Silastic Medical Grade tubing (1.57 mm i.d.; Dow Corning) (Smith et al., 1977). The amounts of steroid contained in the implants were as follows (mean±SEM of 20 randomly chosen implants, 5 for each steroid): 2.6±0.2 mg (0.3-cm), 8.9±0.4 mg (1.0-cm), and 29.2±0.7 mg 3.0-cm). At the time of group assignment, implants were placed in the subcutaneous (S.C.) layer of skin behind the neck. Supplemental steroid implants (containing doses of steroids equivalent to those of the initial implants) were implanted at 6 and 10 weeks of age, without removal of prior implants, to ensure adequate androgen replacement with increasing growth. Cage floors and fecal collection trays were checked for 2 consecutive days following each implantation session to ensure completeness of procedure. […]", "key": {"[1]": {"conditions": "0.1-cm implant (so in the source)"}, "[2]": {"conditions": "0.3-cm implant, given unsigned (decrease vs cholesterol)"}, "[3]": {"conditions": "3.0-cm implant, given unsigned (decrease vs cholesterol)"}, "[4]": {"conditions": "1.0-cm implant, given unsigned (decrease vs cholesterol)"}}, "data": [{"smiles": "C[C@]12CC[C@H]3[C@@H](CCC4=CC(=O)CC[C@@]43C)[C@@H]1CC[C@@H]2O", "note": "[Testosterone, testosterone]", "values": [{"measurement": "6-week Body Wt.", "setting": "[1]", "value": "503 ± 10", "unit": "g"}, {"measurement": "12-week Body Wt.", "setting": "[1]", "value": "1287 ± 25", "unit": "g"}, {"measurement": "Adipose Abdominal", "setting": "[1]", "value": "15 ± 3", "unit": "g"}, {"measurement": "Final 12-week Shank-toe Length", "setting": "[1]", "value": "16.9 ± 0.14", "unit": "cm"}, {"measurement": "Right Breast Muscle", "setting": "[1]", "value": "61 ± 2", "unit": "g"}, {"measurement": "Adipose Abdominal Change", "setting": "0.1-cm implant (so in the source), given unsigned (decrease vs cholesterol)", "value": 37.5, "unit": "%"}, {"measurement": "6-week Body Wt.", "setting": "0.3-cm implant", "value": "501 ± 13", "unit": "g"}, {"measurement": "12-week Body Wt.", "setting": "0.3-cm implant", "value": "1262 ± 35", "unit": "g"}, {"measurement": "Adipose Abdominal", "setting": "0.3-cm implant", "value": "16 ± 2", "unit": "g"}, {"measurement": "Final 12-week Shank-toe Length", "setting": "0.3-cm implant", "value": "17.0 ± 0.16", "unit": "cm"}, {"measurement": "Right Breast Muscle", "setting": "0.3-cm implant", "value": "61 ± 2", "unit": "g"}, {"measurement": "Adipose Abdominal Change", "setting": "[2]", "value": 33.3, "unit": "%"}, {"measurement": "6-week Body Wt.", "setting": "3.0-cm implant", "value": "505 ± 13", "unit": "g"}, {"measurement": "12-week Body Wt.", "setting": "3.0-cm implant", "value": "1207 ± 25", "unit": "g"}, {"measurement": "Adipose Abdominal", "setting": "3.0-cm implant", "value": "10 ± 3", "unit": "g"}, {"measurement": "Final 12-week Shank-toe Length", "setting": "3.0-cm implant", "value": "16.4 ± 0.16", "unit": "cm"}, {"measurement": "Right Breast Muscle", "setting": "3.0-cm implant", "value": "55 ± 2", "unit": "g"}, {"measurement": "12-week Body Wt. Change", "setting": "[3]", "value": 5.6, "unit": "%"}, {"measurement": "Adipose Abdominal Change", "setting": "[3]", "value": 58.3, "unit": "%"}, {"measurement": "Final 12-week Shank-toe Length Change", "setting": "[3]", "value": 3.5, "unit": "%"}, {"measurement": "Right Breast Muscle Change", "setting": "[3]", "value": 14.1, "unit": "%"}]}, {"smiles": "C[C@]12CCC(=O)C[C@@H]1CC[C@@H]1[C@@H]2CC[C@]2(C)[C@@H](O)CC[C@@H]12", "note": "[5-alpha-DHT, 5-alpha-dihydrotestosterone]", "values": [{"measurement": "6-week Body Wt.", "setting": "0.3-cm implant", "value": "515 ± 10", "unit": "g"}, {"measurement": "12-week Body Wt.", "setting": "0.3-cm implant", "value": "1191 ± 26", "unit": "g"}, {"measurement": "Adipose Abdominal", "setting": "0.3-cm implant", "value": "10 ± 2", "unit": "g"}, {"measurement": "Final 12-week Shank-toe Length", "setting": "0.3-cm implant", "value": "16.4 ± 0.10", "unit": "cm"}, {"measurement": "Right Breast Muscle", "setting": "0.3-cm implant", "value": "57 ± 2", "unit": "g"}, {"measurement": "12-week Body Wt. Change", "setting": "[2]", "value": 6.9, "unit": "%"}, {"measurement": "Adipose Abdominal Change", "setting": "[2]", "value": 58.3, "unit": "%"}, {"measurement": "Final 12-week Shank-toe Length Change", "setting": "[2]", "value": 3.5, "unit": "%"}, {"measurement": "Right Breast Muscle Change", "setting": "[2]", "value": 10.9, "unit": "%"}, {"measurement": "6-week Body Wt.", "setting": "1.0-cm implant", "value": "485 ± 12", "unit": "g"}, {"measurement": "12-week Body Wt.", "setting": "1.0-cm implant", "value": "1140 ± 39", "unit": "g"}, {"measurement": "Adipose Abdominal", "setting": "1.0-cm implant", "value": "6 ± 1", "unit": "g"}, {"measurement": "Final 12-week Shank-toe Length", "setting": "1.0-cm implant", "value": "16.1 ± 0.24", "unit": "cm"}, {"measurement": "Right Breast Muscle", "setting": "1.0-cm implant", "value": "51 ± 3", "unit": "g"}, {"measurement": "12-week Body Wt. Change", "setting": "[4]", "value": 10.9, "unit": "%"}, {"measurement": "Adipose Abdominal Change", "setting": "[4]", "value": 75.0, "unit": "%"}, {"measurement": "Final 12-week Shank-toe Length Change", "setting": "[4]", "value": 5.3, "unit": "%"}, {"measurement": "Right Breast Muscle Change", "setting": "[4]", "value": 15.6, "unit": "%"}, {"measurement": "6-week Body Wt.", "setting": "3.0-cm implant", "value": "415 ± 15", "unit": "g"}, {"measurement": "12-week Body Wt.", "setting": "3.0-cm implant", "value": "872 ± 53", "unit": "g"}, {"measurement": "Adipose Abdominal", "setting": "3.0-cm implant", "value": "0.5 ± 0.2", "unit": "g"}, {"measurement": "Final 12-week Shank-toe Length", "setting": "3.0-cm implant", "value": "13.7 ± 0.34", "unit": "cm"}, {"measurement": "Right Breast Muscle", "setting": "3.0-cm implant", "value": "36 ± 3", "unit": "g"}, {"measurement": "6-week Body Wt. Change", "setting": "[3]", "value": 19.1, "unit": "%"}, {"measurement": "12-week Body Wt. Change", "setting": "[3]", "value": 31, "unit": "%"}, {"measurement": "Adipose Abdominal Change", "setting": "[3]", "value": 97.9, "unit": "%"}, {"measurement": "Final 12-week Shank-toe Length Change", "setting": "[3]", "value": 19.4, "unit": "%"}, {"measurement": "Right Breast Muscle Change", "setting": "[3]", "value": 43.8, "unit": "%"}]}]}
